Measurements: the supplement of paper PMC11061612

Columns and labels:
[1] = compound: C=CCn1c(=O)c2cnc(Nc3ccc(N4CCN(C)CC4)cc3)nc2n1-c1cccc(C(C)(C)O)n1 [AZD1775]; details: max 3 µM
How it was run: (§1)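 Cancer cell lines in 1536-well plates (7.5 μl DMEM/F12 or RPMI, 10% FBS) were held 24 hours at 37°C and 5% CO2 and then dosed for 72 hours at a final DMSO of typically 0.2%. Viability was taken from CellTiter-Glo 2.0 luminescence, scaled between blank-well and DMSO-well means. Curves were fitted as two-parameter logistic models with a non-linear mixed effects model, from which the single-agent IC50 was taken.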

[2] = compound: COc1nnc2ccc(N3CCC(c4ccc(OCCN5CCN(C)C(=O)[C@H]5C)cc4)CC3)nn12 [AZD5153]; details: max 1 µM
How it was run: as §1

[3] = compound: CN(CC[C@H](CSC1=CC=CC=C1)NC2=C(C=C(C=C2)S(=O)(=O)NC(=O)C3=CC=C(C=C3)N4CCC(CC4)[C@H](C5=CC=CC=C5C6=CC=C(C=C6)Cl)O)S(=O)(=O)C(F)(F)F)CCO [AZD4320]; details: max 1 µM
How it was run: as §1

[4] = compound: COc1cc(Nc2ncc3c(n2)-c2ccc(Cl)cc2C(c2c(F)cccc2OC)=NC3)ccc1C(=O)O [Alisertib]; details: max 10 µM
How it was run: as §1

[5] = compound: CC1(C)CCC(CN2CCN(c3ccc(C(=O)NS(=O)(=O)c4ccc(NCC5CCOCC5)c([N+](=O)[O-])c4)c(Oc4cnc5[nH]ccc5c4)c3)CC2)=C(c2ccc(Cl)cc2)C1 [Venetoclax]; details: max 1 µM
How it was run: as §1

[6] = compound: COc1cccc(OCCCN)c1-c1cc(Nc2cnc(C#N)cn2)n[nH]1 [Prexasertib]; details: max 1 µM
How it was run: as §1

[7] = compound: CC(C)n1c(=O)n(C)c2cnc3cc(F)c(-c4ccc(OCCCN5CCCCC5)nc4)cc3c21 [AZD1390]; details: max 0.3 µM
How it was run: as §1

[8] = compound: O=C(c1cc(Cc2n[nH]c(=O)c3ccccc23)ccc1F)N1CCN(C(=O)C2CC2)CC1 [Olaparib]
How it was run: as §1

[9] = compound: CC(=O)Nc1cccc(-n2c(=O)n(C3CC3)c(=O)c3c(Nc4ccc(I)cc4F)n(C)c(=O)c(C)c32)c1 [Trametinib]; details: max 1 µM
How it was run: as §1

[10] = compound: C1CN(CCC1(C(=O)N[C@@H](CCO)C2=CC=C(C=C2)Cl)N)C3=NC=NC4=C3C=CN4 [Capivasertib]
How it was run: as §1

[11] = compound: C[C@@H](c1ccc2nccn2c1)n1nnc2ncc(-c3cnn(C)c3)nc21 [Savolitinib]; details: max 1 µM
How it was run: as §1

[12] = compound: Cc1c2c(nn1C)CSCc1cc(n(C)n1)CSc1cc(c3ccccc3c1)OCCCc1c(C(=O)O)n(C)c3c-2c(Cl)ccc13 [AZD5991]; details: max 1 µM
How it was run: as §1

[13] = compound: CCc1c2c(nc3ccc(O)cc13)-c1cc3c(c(=O)n1C2)COC(=O)[C@]3(O)CC [SN-38]; details: max 0.3 µM
How it was run: as §1

[14] = compound: COc1cc2ncnc(Nc3ccc(F)c(Cl)c3)c2cc1OCCCN1CCOCC1 [Gefitinib]; details: max 10 µM
How it was run: as §1

[15] = compound: CN(C)CCCOc1ccc(-c2ccc3ncc4c(c3c2)n(C2CCOCC2)c(=O)n4C)cn1 [AZD0156]; details: max 3 µM
How it was run: as §1

[16] = compound: C[C@@H]1COCCN1C2=NC(=NC(=C2)C3(CC3)[S@](=N)(=O)C)C4=C5C=CNC5=NC=C4 [AZD6738]; details: max 10 µM
How it was run: as §1

[17] = compound: CC1=CN2[C@@H](C1)C=NC3=CC(=C(C=C3C2=O)OC)OCCCCCOC4=C(C=C5C(=C4)N=C[C@@H]6CC(=CN6C5=O)C)OC [SG3199]; details: max 0.001 µM
How it was run: as §1

[18] = compound: C[C@@H](Nc1cc(F)cc(F)c1)c1cc(C(=O)N(C)C)cc2c(=O)cc(N3CCOCC3)oc12 [AZD8186]; details: max 3 µM
How it was run: as §1

[19] = compound: CC1=C(C(=CC=C1)Cl)NC(=O)C2=CN=C(S2)NC3=CC(=NC(=N3)C)N4CCN(CC4)CCO [Dasatinib]; details: max 2 µM
How it was run: as §1

[20] = compound: CC(=O)c1c(C)c2cnc(Nc3ccc(N4CCNCC4)cn3)nc2n(C2CCCC2)c1=O [Palbociclib]; details: max 10 µM
How it was run: as §1

[21] = compound: Cn1cnc2c(F)c(Nc3ccc(Br)cc3Cl)c(C(=O)NOCCO)cc21 [Selumetinib]; details: max 10 µM
How it was run: as §1

[22] = compound: CCN(CCO)CCCOc1ccc2c(Nc3cc(CC(=O)Nc4cccc(F)c4)[nH]n3)ncnc2c1 [AZD2811]; details: max 1 µM
How it was run: as §1

[23] = compound: CS(=O)(=O)CCNCc1ccc(-c2ccc3ncnc(Nc4ccc(OCc5cccc(F)c5)c(Cl)c4)c3c2)o1 [Lapatinib]; details: max 10 µM
How it was run: as §1

[24] = compound: COc1cccc2c1C(=O)c1c(O)c3c(c(O)c1C2=O)C[C@@](O)(C(=O)CO)C[C@@H]3O[C@H]1C[C@H](N)[C@H](O)[C@H](C)O1 [Doxorubicin]; details: max 1 µM
How it was run: as §1

[25] = compound: Cc1cc2ncnn2cc1Nc1ncc2c(n1)n(C1CCOCC1)c(=O)n2C [AZD7648]; details: max 10 µM
How it was run: as §1

[26] = compound: C[C@@H](Oc1cc(-c2cnn(C3CCNCC3)c2)cnc1N)c1c(Cl)ccc(F)c1Cl [Crizotinib]; details: max 10 µM
How it was run: as §1

[27] = compound: Cc1nc(-c2cn3c(n2)-c2ccc(-c4cnn(C(C)(C)C(N)=O)c4)cc2OCC3)n(C(C)C)n1 [Taselisib]; details: max 10 µM
How it was run: as §1

| Cell Line | IC50, cell viability 72 h [1] | IC50, cell viability 72 h [2] | IC50, cell viability 72 h [3] | IC50, cell viability 72 h [4] | IC50, cell viability 72 h [5] | IC50, cell viability 72 h [6] | IC50, cell viability 72 h [7] | IC50, cell viability 72 h ([8]; max 10 µM) | IC50, cell viability 72 h [9] | IC50, cell viability 72 h ([10]; max 10 µM) | IC50, cell viability 72 h [11] | IC50, cell viability 72 h [12] | IC50, cell viability 72 h [13] | IC50, cell viability 72 h [14] | IC50, cell viability 72 h [15] | IC50, cell viability 72 h [16] | IC50, cell viability 72 h [17] | IC50, cell viability 72 h [18] | IC50, cell viability 72 h [19] | IC50, cell viability 72 h [20] | IC50, cell viability 72 h [21] | IC50, cell viability 72 h [22] | IC50, cell viability 72 h [23] | IC50, cell viability 72 h [24] | IC50, cell viability 72 h [25] | IC50, cell viability 72 h [26] | IC50, cell viability 72 h [27] | IC50, cell viability 72 h ([8]; max 3 µM) | IC50, cell viability 72 h ([10]; max 3 µM) |
| --- | --- | --- | --- | --- | --- | --- | --- | --- | --- | --- | --- | --- | --- | --- | --- | --- | --- | --- | --- | --- | --- | --- | --- | --- | --- | --- | --- | --- | --- |
| 8-MG-BA (Glioblastoma) | 0.43 µM | 0.136 µM | > 1 µM | > 10 µM | > 1 µM | 0.0211 µM | > 0.3 µM | > 10 µM | > 1 µM | > 10 µM | > 1 µM | 0.676 µM | 0.0154 µM | > 10 µM | > 3 µM | 2.24 µM | > 0.001 µM | > 3 µM | 0.255 µM | > 10 µM | > 10 µM | > 1 µM | 8.81 µM | 0.393 µM | > 10 µM | 8.8 µM | 3.73 µM |  |  |
| A3-KAW (B-Cell Non-Hodgkin's Lymphoma) | 0.117 µM | 0.0111 µM | > 1 µM | 0.0686 µM | > 1 µM | 0.00737 µM | > 0.3 µM | 8.45 µM | 0.997 µM | > 10 µM | > 1 µM | 0.0217 µM | 0.00318 µM | > 10 µM | 1.35 µM | 0.355 µM | > 0.001 µM | > 3 µM | > 2 µM | 1.3 µM | > 10 µM | 0.887 µM | > 10 µM | 0.0863 µM | > 10 µM | 3.98 µM | > 10 µM |  |  |
| A498 (Kidney Carcinoma) | 1.69 µM | > 1 µM | > 1 µM | > 10 µM | > 1 µM | 0.201 µM | > 0.3 µM | > 10 µM | > 1 µM | 4.66 µM | > 1 µM | > 1 µM | > 0.3 µM | > 10 µM | > 3 µM | > 10 µM | > 0.001 µM | 0.425 µM | > 2 µM | > 10 µM | > 10 µM | > 1 µM | > 10 µM | > 1 µM | > 10 µM | > 10 µM | 9.45 µM |  |  |
| A549 (Lung Adenocarcinoma) | 2.46 µM | 0.0952 µM | > 1 µM | 2.34 µM | > 1 µM | > 1 µM | > 0.3 µM | > 10 µM | 0.0297 µM | 6.93 µM | > 1 µM | > 1 µM | 0.07 µM | > 10 µM | > 3 µM | 6.07 µM | > 0.001 µM | > 3 µM | 0.17 µM | 8.16 µM | 1.05 µM | 0.777 µM | 2.75 µM | 0.309 µM | > 10 µM | 6.62 µM | 1.72 µM |  |  |
| ARH-77 (Non-Cancerous) | 0.189 µM | 0.0618 µM | 0.1 µM | 1.17 µM | > 1 µM | 0.0155 µM | > 0.3 µM | > 10 µM | > 1 µM | 1.76 µM | > 1 µM | 0.229 µM | 0.00668 µM | > 10 µM | 1.79 µM | 1.85 µM | > 0.001 µM | 1.27 µM | 0.233 µM | > 10 µM | > 10 µM | > 1 µM | 8.04 µM | 0.143 µM | > 10 µM | > 10 µM | 0.528 µM |  |  |
| BT-483 (Breast Carcinoma) | > 3 µM |  |  |  |  |  |  |  |  |  |  |  |  |  | > 3 µM |  |  |  |  |  |  |  |  |  |  |  |  | > 3 µM | > 3 µM |
| CAL-29 (Bladder Carcinoma) | 0.762 µM | > 1 µM | > 1 µM | > 10 µM | > 1 µM | 0.0418 µM | > 0.3 µM | > 10 µM | > 1 µM | > 10 µM | > 1 µM | > 1 µM | 0.0143 µM | > 10 µM | > 3 µM | 6.08 µM | > 0.001 µM | > 3 µM | > 2 µM | > 10 µM | > 10 µM | > 1 µM | > 10 µM | > 1 µM | > 10 µM | > 10 µM | 0.218 µM |  |  |
| CAS-1 (Glioblastoma) | 1.6 µM | 0.345 µM | > 1 µM | 4.13 µM | > 1 µM | 0.158 µM | > 0.3 µM | > 10 µM | 0.465 µM | 7.05 µM | > 1 µM | > 1 µM | 0.202 µM | > 10 µM | > 3 µM | > 10 µM | > 0.001 µM | > 3 µM | 0.931 µM | > 10 µM | > 10 µM | > 1 µM | > 10 µM | > 1 µM | > 10 µM | > 10 µM | > 10 µM |  |  |
| COLO-824 (Breast Carcinoma) | 0.868 µM | 0.233 µM | 0.0333 µM | 3.01 µM | 0.214 µM | 0.0646 µM | > 0.3 µM | > 10 µM | > 1 µM | 7.34 µM | > 1 µM | > 1 µM | > 0.3 µM | > 10 µM | > 3 µM | 5.51 µM | > 0.001 µM | > 3 µM | > 2 µM | > 10 µM | > 10 µM | 0.0558 µM | 7.96 µM | > 1 µM | > 10 µM | 4.32 µM | 2.46 µM |  |  |
